Data on 17 molecules can be found in patent US9464064B2, “HCV helicase inhibitors and methods of use thereof” (University of Kansas, priority 2011, dated 2016).

The target of this assay is T1, HCV NS3 helicase NS3h_1b(con1) (Hepatitis C virus genotype 1b, UniProt Q9WMX2).
T1 construct: truncated C-terminally His-tagged NS3 proteins lacking the N-terminal protease, called NS3h; His-tag (C); made in house
The assay is described as follows: MBHA screen of NCI mechanistic set library at 20 μM (percent inhibition, compound interference). It counts as biochemical. Conditions: compounds at 20 μM; for Inh. (%) (Inhibition): calculated from Equation 1. The method, boiled down:
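Molecular beacon-based DNA unwinding assay; compounds screened at 20 μM in triplicate, with DMSO-only negative and 500 nM dT20 positive controls. Fluorescence (ex 643/em 670 nm) was read before and 30 min after adding ATP to 1 mM. Percent inhibition came from the change relative to DMSO controls; interference from pre-ATP fluorescence versus DMSO controls.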

Setting [1] is: assay interference calculated with Equation 2 (fluorescence vs DMSO-only controls before ATP).
Setting [2] is: MBHA with DNA substrate, assay interference calculated with Equation 2.

Positions of bridges follow the written chain, without caps; N, C: chain ends. Non-standard residues stand in square brackets, D forms with d. Residues, ends and D or L forms follow the SMILES beside them. ξ: configuration not given here. *: point of attachment. ξNMePhe(4-NMe2) = CNC(Cc1ccc(N(C)C)cc1)C(=O)O; Picolinoyl(3-OH) = O=C(c1ncccc1O)*; ξPip(4-oxo) = O=C1CCNC(C(=O)O)C1; Phg = N[CH](C(=O)O)c1ccccc1; Abu = CC[CH](N)C(=O)O

T1 sequence (Q9WMX2 1192-1657): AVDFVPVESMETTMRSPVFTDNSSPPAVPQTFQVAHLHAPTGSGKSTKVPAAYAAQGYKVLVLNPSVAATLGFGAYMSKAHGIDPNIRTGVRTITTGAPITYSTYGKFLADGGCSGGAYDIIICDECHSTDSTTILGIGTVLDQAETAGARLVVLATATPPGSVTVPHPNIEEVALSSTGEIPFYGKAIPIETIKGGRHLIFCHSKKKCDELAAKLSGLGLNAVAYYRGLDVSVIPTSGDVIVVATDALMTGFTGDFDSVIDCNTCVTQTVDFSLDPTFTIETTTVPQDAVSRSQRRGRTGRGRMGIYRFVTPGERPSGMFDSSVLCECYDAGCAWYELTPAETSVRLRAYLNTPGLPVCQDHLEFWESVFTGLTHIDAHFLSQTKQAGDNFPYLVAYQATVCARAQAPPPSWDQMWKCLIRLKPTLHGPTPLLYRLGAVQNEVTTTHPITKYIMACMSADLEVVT

For `CC1=C\C(O)CC(=O)Cc2nc(co2)C(=O)N2CCC=C2C(=O)OC(C(C)C)C(C)/C=C/C(=O)NC/C=C\1.CCC1NC(=O)C(NC(=O)c2ncccc2O)C(C)OC(=O)C(c2ccccc2)NC(=O)C2CC(=O)CCN2C(=O)C(Cc2ccc(N(C)C)cc2)N(C)C(=O)C2CCCN2C1=O` (stereo not shown) [Compound 125176] ({Picolinoyl(3-OH)}-T[Abu]P[ξNMePhe(4-NMe2)][ξPip(4-oxo)][Phg]; ester 1-C; configuration not given here), the “Inh. (%) (Inhibition)” value (MBHA with a DNA substrate) is recorded as −20.2%. For the same molecule, under setting [1], the “Int.* (Ratio) (Interference)” value is recorded as 0.90 Ratio.

Turning to `O=C1C(=O)c2ccccc2C(O)=C1CC=C(Cl)Cl` [Compound 126771], the “Int.* (Ratio) (Interference)” value under setting [2] is recorded as 1.12 Ratio. The “Inh. (%) (Inhibition)” value (MBHA with DNA substrate) is −9.7%.

With `COc1ccc(-c2cc(=O)c3c(O)cc(O)cc3o2)cc1OC` [Compound 128305], the “Inh. (%) (Inhibition)” value (MBHA with a DNA substrate) is recorded as −4.3%. Further, the “Int.* (Ratio) (Interference)” value under setting [1] is 0.99 Ratio.

Consider `c1ccc2c(c1)nnn1c3cnccc3nc21` [Compound 128734], for which the “Inh. (%) (Inhibition)” value (MBHA with a DNA substrate) was −3.1%. Further, the “Int.* (Ratio) (Interference)” value under setting [1] is reported as 0.91 Ratio.

As for `CCC1=C(C[C@H]2NCCc3cc(OC)c(OC)cc32)C[C@H]2c3cc(OC)c(OC)cc3CCN2C1` [Compound 129414], the “Inh. (%) (Inhibition)” value (MBHA with a DNA substrate) is 12.0%. Moreover, the “Int.* (Ratio) (Interference)” value under setting [1] was 1.08 Ratio.

As for `CC(CN1CC(=O)NC(=O)C1)N1CC(=O)NC(=O)C1` (stereo not shown) [Compound 129943], the “Inh. (%) (Inhibition)” value (MBHA with a DNA substrate) is listed as −5.2%. Moreover, the “Int.* (Ratio) (Interference)” value under setting [1] is on record as 1.13 Ratio.

`COC1=C(N)C(=O)c2nc(C)ccc2C1=O` [Compound 132493]: the “Inh. (%) (Inhibition)” value (MBHA with a DNA substrate) is reported as −22.9%. Further, the “Int.* (Ratio) (Interference)” value under setting [1] is recorded as 1.07 Ratio.

Turning to `CC[C@](C)(O)C(=O)O[C@H]1C(=O)O[C@@H]2C[C@H]3C(C)=CC(=O)[C@@H](O)[C@]3(C)[C@H]3C4(O)OC[C@]32[C@@H]1[C@@H](C)[C@H]4O` [Compound 132791], the “Inh. (%) (Inhibition)” value (MBHA with a DNA substrate) was 8.2%. Also, the “Int.* (Ratio) (Interference)” value under setting [1] is reported as 0.98 Ratio.

In the case of `Br.COC1CN(C)C(=Nc2cccc3ccccc23)S1` (stereo not shown) [Compound 135996], the “Int.* (Ratio) (Interference)” value under setting [2] is on record as 1.07 Ratio. The “Inh. (%) (Inhibition)” value (MBHA with DNA substrate) is given as −14.0%.

Regarding `CC1=CC23C(COC(=O)C24CO4)C(C(=O)O)=CC3C1C.NCc1ccccc1` (stereo not shown) [Compound 136037], the “Int.* (Ratio) (Interference)” value under setting [2] is given as 1.00 Ratio. Also, under “MBHA with DNA substrate”, the “Inh. (%) (Inhibition)” value is given as 3.9%.

For `CC[C@@]1(O)C[C@H](OC2CC(N(C)C)C(O)C(C)O2)c2c(O)c3c(c(O)c2[C@H]1OC1CC(N(C)C)C(O)C(C)O1)C(=O)c1cccc(O)c1C3=O` (stereo partly shown) [Compound 136044], the “Int.* (Ratio) (Interference)” value under setting [2] was 0.33 Ratio. In addition, the “Inh. (%) (Inhibition)” value (MBHA with DNA substrate) is given as 47.9%.

For the molecule `CCCC(=O)OCC1OC(n2ccc(N)nc2=O)C(OC(=O)CCC)C1OC(=O)CCC` (stereo not shown) [Compound 138429], for the setting “MBHA with a DNA substrate”, the “Inh. (%) (Inhibition)” value is 10.9%. Besides, the “Int.* (Ratio) (Interference)” value under setting [1] is 1.09 Ratio.

In the case of `CCS(=O)(=O)O.CN(C)C(=O)c1cccc(COc2ccc(N3C(N)=NC(N)=NC3(C)C)cc2Cl)c1` [Compound 139105], for the setting “MBHA with a DNA substrate”, the “Inh. (%) (Inhibition)” value is 7.0%. Under setting [1], the “Int.* (Ratio) (Interference)” value is reported as 0.98 Ratio.

Take `Cc1cccc(NC(=O)/C=C/c2ccc([N+](=O)[O-])cc2)c1` [Compound 139109]: under setting [2], the “Int.* (Ratio) (Interference)” value is on record as 1.06 Ratio. In addition, the “Inh. (%) (Inhibition)” value (MBHA with DNA substrate) is −1.2%.

`CN1c2c(nc(N)[nH]c2=O)NCC1CCNc1ccc(C(=O)N[C@@H](CCC(=O)[O-])C(=O)[O-])cc1.[Na+].[Na+]` (stereo partly shown) [Compound 139490]: the “Int.* (Ratio) (Interference)” value under setting [2] is reported as 0.95 Ratio. Also, under “MBHA with DNA substrate”, the “Inh. (%) (Inhibition)” value is reported as −13.8%.

In the case of `CC(C)=CCC(OC(=O)C=C(C)C)C1=CC(=O)c2c(O)ccc(O)c2C1=O` (stereo not shown) [Compound 140377], where the note is “MBHA with a DNA substrate”, the “Inh. (%) (Inhibition)” value is 9.4%. For the same molecule, the “Int.* (Ratio) (Interference)” value under setting [1] is on record as 0.93 Ratio.

In the case of `O=S(=O)(c1cccc(N=C=S)c1)c1cccc(N=C=S)c1` [Compound 140911], the “Int.* (Ratio) (Interference)” value under setting [2] is listed as 0.99 Ratio. Under “MBHA with DNA substrate”, the “Inh. (%) (Inhibition)” value is recorded as 3.1%.
